This passage reports Ki results from ChEMBL document CHEMBL1140258, “Synthesis and structure-activity relationships of biarylcarboxamide bis-aminopyrrolidine urea derived small-molecule antagonists of the melanin-concentrating hormone receptor-1 (MCH-R1)” (Bioorg Med Chem Lett, 2005).

Bounds are passed on as bounds.

The target in this assay is Melanin-concentrating hormone receptor 1 (Homo sapiens, UniProt Q99705). Briefly: biochemical. Format: cell-based, HEK293.
Chain of Melanin-concentrating hormone receptor 1 (Q99705 whole entry): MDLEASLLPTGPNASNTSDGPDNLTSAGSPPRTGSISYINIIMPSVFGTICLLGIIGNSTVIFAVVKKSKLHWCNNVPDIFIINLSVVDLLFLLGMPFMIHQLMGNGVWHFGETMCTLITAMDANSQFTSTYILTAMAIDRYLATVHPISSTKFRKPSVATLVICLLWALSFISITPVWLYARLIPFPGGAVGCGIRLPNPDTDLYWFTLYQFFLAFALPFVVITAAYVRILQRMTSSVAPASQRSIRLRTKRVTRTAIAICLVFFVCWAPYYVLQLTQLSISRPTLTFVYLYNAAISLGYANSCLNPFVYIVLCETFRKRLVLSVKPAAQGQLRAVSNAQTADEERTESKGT
Description: Binding affinity towards the human MCH-R1 receptor by displacing [125I]Tyr13]-MCH radioligand in HEK293 cells, Data is average of 3 or more independent measurements
`Cc1cccc(C)c1-c1ccc(C(=O)N(C)[C@H]2CCN(C(=O)N(C)[C@@H]3CCN(C)C3)C2)s1` had a Ki of 310 nM.

As for `CN1CC[C@H](N(C)C(=O)N2CC[C@H](N(C)C(=O)c3ccc(-c4ccc(C(F)(F)F)cc4)s3)C2)C1`, the affinity, expressed as Ki, was 14 nM.

`CCc1ccc(-c2ccc(C(=O)N(C)[C@H]3CCN(C(=O)N(C)[C@@H]4CCN(C)C4)C3)s2)cc1` came in with a Ki of 1 nM.

As for `CCOc1ccc(-c2ccc(C(=O)N(C)[C@H]3CCN(C(=O)N(C)[C@@H]4CCN(C)C4)C3)s2)c(Cl)c1`, the Ki is 2 nM.

On to `CN1CC[C@@H](N(C)C(=O)N2CC[C@H](N(C)C(=O)c3ccc(-c4ccc(N(C)C)cc4)s3)C2)C1`, for which affinity was put at a Ki of 7 nM.

`CN1CC[C@@H](N(C)C(=O)N2CC[C@@H](N(C)C(=O)c3ccc(-c4ccc(C(F)(F)F)cc4)s3)C2)C1` registered a Ki of 150 nM.

Turning to `COc1cccc(-c2ccc(C(=O)N(C)[C@H]3CCN(C(=O)N(C)[C@@H]4CCN(C)C4)C3)s2)c1`, the Ki worked out at 900 nM.

`Cc1ccccc1-c1ccc(C(=O)N(C)[C@H]2CCN(C(=O)N(C)[C@@H]3CCN(C)C3)C2)s1` registered a Ki of 19 nM.

`COc1ccc(-c2ccc(C(=O)N(C)[C@H]3CCN(C(=O)N(C)[C@@H]4CCN(C)C4)C3)cc2)cc1` displayed a Ki of 5 nM.

The molecule `Cc1cc(Cl)ccc1-c1ccc(C(=O)N(C)[C@H]2CCN(C(=O)N(C)[C@@H]3CCN(C)C3)C2)s1` displayed an inhibition constant (Ki) of 3 nM.

The molecule `CN1CC[C@@H](N(C)C(=O)N2CC[C@H](N(C)C(=O)c3ccc(-c4ccc(C(F)(F)F)cc4)s3)C2)C1` had a Ki of 2 nM.

Take `CN1CC[C@@H](N(C)C(=O)N2CC[C@H](N(C)C(=O)c3ccc(-c4cccc(Cl)c4)s3)C2)C1`: the Ki was 320 nM.

`CN1CC[C@@H](N(C)C(=O)N2CC[C@H](N(C)C(=O)c3ccc(-c4cccc(C(F)(F)F)c4)s3)C2)C1` yielded a Ki of 1800 nM.

Turning to `CN1CC[C@@H](N(C)C(=O)N2CC[C@H](N(C)C(=O)c3ccc(-c4ccc(Cl)cc4)cc3)C2)C1`, the Ki worked out at 2 nM.

In turn, `CC(C)c1ccc(-c2ccc(C(=O)N(C)[C@H]3CCN(C(=O)N(C)[C@@H]4CCN(C)C4)C3)s2)cc1` gave a Ki of 5 nM.

As to `CN1CC[C@@H](N(C)C(=O)N2CC[C@H](N(C)C(=O)c3ccc(-c4ccc(C#N)cc4)s3)C2)C1`, the Ki was determined as 2400 nM.

`COc1ccc(-c2ccc(C(=O)N(C)[C@H]3CCN(C(=O)N(C)[C@@H]4CCN(C)C4)C3)s2)cc1` came in with an inhibitory constant (Ki) of 4 nM.

`COc1ccc(-c2ccc(C(=O)N(C)[C@H]3CCN(C(=O)N(C)[C@@H]4CCN(C)C4)C3)s2)c(C)c1`: the Ki came to 3 nM.

Turning to `CN1CC[C@@H](N(C)C(=O)N2CC[C@H](N(C)C(=O)c3ccc(-c4ccc(Cl)cc4)s3)C2)C1`, the affinity corresponds to a Ki of 2 nM.

`CCOc1ccc(-c2ccc(C(=O)N(C)[C@H]3CCN(C(=O)N(C)[C@@H]4CCN(C)C4)C3)s2)cc1` displayed a Ki of 63 nM.

`CN1CC[C@@H](N(C)C(=O)N2CC[C@H](N(C)C(=O)c3ccc(-c4ccc(Cl)cc4Cl)s3)C2)C1` came in with a Ki of 3 nM.

For the molecule `CN1CC[C@@H](N(C)C(=O)N2CC[C@H](N(C)C(=O)c3ccc(-c4ccc(OC(F)(F)F)cc4)s3)C2)C1`, the affinity corresponds to a Ki of 4 nM.

`Cc1ccc(-c2ccc(C(=O)N(C)[C@H]3CCN(C(=O)N(C)[C@@H]4CCN(C)C4)C3)s2)cc1` registered a Ki of 3 nM.

Regarding `CN1CC[C@H](N(C)C(=O)N2CC[C@@H](N(C)C(=O)c3ccc(-c4ccc(C(F)(F)F)cc4)s3)C2)C1`, the affinity, expressed as Ki, was 190 nM.

Take `COc1ccccc1-c1ccc(C(=O)N(C)[C@H]2CCN(C(=O)N(C)[C@@H]3CCN(C)C3)C2)s1`: the Ki was 3400 nM.

For `CN1CC[C@@H](N(C)C(=O)N2CC[C@H](N(C)C(=O)c3ccc(-c4ccc(S(C)(=O)=O)cc4)s3)C2)C1`, the Ki came out at 6000 nM.

Take `CN1CC[C@@H](N(C)C(=O)N2CC[C@H](N(C)C(=O)c3ccc(-c4ccccc4C(F)(F)F)s3)C2)C1`: the affinity, expressed as Ki, was 61 nM.

`CN1CC[C@@H](N(C)C(=O)N2CC[C@H](N(C)C(=O)c3ccc(-c4ccc(F)cc4)s3)C2)C1` showed a Ki of 37 nM.

In turn, `COc1ccc(-c2ccc(C(=O)N(C)[C@H]3CCN(C(=O)N(C)[C@@H]4CCN(C)C4)C3)cc2)c(C)c1` came in with an inhibition constant (Ki) of 16 nM.

In turn, `CN1CC[C@@H](N(C)C(=O)N2CC[C@H](N(C)C(=O)c3ccc(-c4ccccc4Cl)s3)C2)C1` registered a Ki of 10 nM.

`Cc1ccc(-c2ccc(C(=O)N(C)[C@H]3CCN(C(=O)N(C)[C@@H]4CCN(C)C4)C3)s2)c(C)c1` returned a Ki of 3 nM.

`CN1CC[C@@H](N(C)C(=O)N2CC[C@H](N(C)C(=O)c3ccc(-c4ccc(O)cc4)s3)C2)C1`: the Ki is above 10000 nM.

Consider `Cc1ccc(-c2ccc(C(=O)N(C)[C@H]3CCN(C(=O)N(C)[C@@H]4CCN(C)C4)C3)s2)c(Cl)c1`, for which the affinity corresponds to a Ki of 1 nM.

For the molecule `CC(C)Oc1ccc(-c2ccc(C(=O)N(C)[C@H]3CCN(C(=O)N(C)[C@@H]4CCN(C)C4)C3)s2)cc1`, affinity was put at a Ki of 3300 nM.
